The source of these data is US20130331347A1, “Treatment of Clostridium Difficile Infection in Patients Undergoing Antibiotic Therapy” (Optimer Pharmaceuticals, Inc., priority 2010, published 2013).

For this assay, the system named is Clostridium difficile infection (CDI). The experiment in a line: Concomitant antibiotics (CAs) during CDI treatment: PO fidaxomicin vs PO vancomycin, clinical outcome review. In kind it is in vivo, human. To be noted: for Global Cure (clinical cure with no recurrence) / Clinical Cure / Recurrence: per protocol (PP); for Clinical Cure: 10 days of study drug; for Recurrence: CDI recurrence during 4-wk follow-up. The protocol: Administration of concomitant antibiotics (CAs) to subjects during the 10 days of study drug administration (PO Fidaxomicin (FDX 200 mg BID)) vs. (PO Vancomycin (Vanc 125 mg QID)) through 4-wk follow-up period was reviewed. End points were the effect of CAs on clinical cure, CDI recurrence during 4-wk follow-up, and global cure (clinical cure with no recurrence).

The mark [1] stands for this setting: in those who received CAs, in words.

For the compound `CCc1c(Cl)c(O)c(Cl)c(O)c1C(=O)O[C@H]1[C@H](O)[C@H](OC)[C@H](OC/C2=C\C=C\C[C@H](O)/C(C)=C/[C@H](CC)[C@@H](O[C@@H]3OC(C)(C)[C@@H](OC(=O)C(C)C)[C@H](O)[C@@H]3O)/C(C)=C/C(C)=C/C[C@@H]([C@@H](C)O)OC2=O)O[C@@H]1C` [FDX, fidaxomicin], where the note is “CA (concomitant antibiotics)”, the “Global Cure (clinical cure with no recurrence)” value was found to be 72%, the “Clinical Cure” value was determined as 87% and the Recurrence stood at 23%. Under “No CA”, the “Global Cure (clinical cure with no recurrence)” value stood at 79%, the “Clinical Cure” value worked out at 93% and the Recurrence was 11%. In addition, under setting [1], the “CDI recurrences compared to Vanc” value is reported as “lower” and the “global cures compared to Vanc” value was “significantly improved”.
For the compound `CN[C@H](CC(C)C)C(=O)N[C@H]1C(=O)N[C@@H](CC(N)=O)C(=O)N[C@H]2C(=O)N[C@H]3C(=O)N[C@H](C(=O)N[C@H](C(=O)O)c4cc(O)cc(O)c4-c4cc3ccc4O)[C@H](O)c3ccc(c(Cl)c3)Oc3cc2cc(c3O[C@@H]2O[C@H](CO)[C@@H](O)[C@H](O)[C@H]2O[C@H]2C[C@](C)(N)[C@H](O)[C@H](C)O2)Oc2ccc(cc2Cl)[C@H]1O` [Vanc, Vancomycin, reference compound], under “CA (concomitant antibiotics)”, the “Global Cure (clinical cure with no recurrence)” value was 50%, the “Clinical Cure” value is 77% and the Recurrence came out at 40%. Besides, where the note is “No CA”, the “Global Cure (clinical cure with no recurrence)” value came out at 72%, the “Clinical Cure” value was 94% and the Recurrence is given as 18%.
